Reference: US20200123147A1, “THIAZOLE COMPOUNDS USEFUL AS PRMT5 INHIBITORS” (Bayer Aktiengesellschaft, priority 2017, published 2020)

Target: T1, PRMT5:MEP50 protein complex (Homo sapiens, UniProt O14744)
T1 construct: FLAG (N); made in house; host or cells: Hi5 insect cells
Experiment: In vitro assay 1: PRMT5 SPA assay ("EAA")
Type: biochemical
Conditions: scintillation proximity assay, methylation of biotinylated H4(1-24) peptide, 3H-SAM, 60 min at 22° C.
Description: In Vitro Assay 1: PRMT5 SPA Assay (“EAA”)
PRMT5 inhibitory activities of the compounds described in the present invention were quantified using a scintillation proximity assay (SPA) which measures methylation by the enzyme of a synthetic, biotinylated peptide corresponding to the N-terminal sequence of Histone H4 (a.a. 1-24). The peptide of sequence […]-K(Btn)-amide is commercially available (e.g. from Biosyntan) and will be herein referred to as H4(1-24). The PRMT5:MEP50 protein complex used in the assay was produced in house following standard protocols. Briefly, full length PRMT5 and MEP50 constructs respectively tagged with N-terminal FLAG and 6× His sequences were co-expressed in Hi5 insect cells, and the recombinant protein complex was purified by FLAG affinity and size exclusion chromatography.
In a typical assay 11 different concentrations of each compound (0.1 nM, 0.33 nM, 1.1 nM, 3.8 nM, 13 nM, 44 nM, 0.15 μM, 0.51 μM, 1.7 μM, 5.9 μM and 20 μM) were tested in duplicate within the same microtiter plate. To this end, 100-fold concentrated compound solutions (in DMSO) were previously prepared by serial dilution (1:3.4) of 2 mM stocks in a clear low volume 384-well source microtiter plate (Greiner Bio-One), from which 50 nl of compounds were transferred into a white low volume test microtiter plate from the same supplier. Subsequently, 2.5 μL PRMT5 in aqueous assay buffer [20 mM Bicine pH 8.0 (Alfa Aesar), 7.5 mM Tris(2-carboxyethyl) phosphine hydrochloride (TCEP, Sigma), 0.1% (w/v) bovine gamma globuline (BGG, Sigma), 0.002% (v/v) Tween-20 (Sigma)] were added to the compounds in the test plate to a final enzyme concentration of—typically—7.5 nM (this parameter was adjusted depending on the activity of the enzyme lot in order to be within the linear dynamic range of the assay). The samples were then incubated for 15 min at 22° C. to allow pre-equilibration of the putative enzyme-inhibitor complexes before the start of the methylation reaction, which was initiated by the addition of 2.5 μL 2-fold concentrated solution (in assay buffer) of “cold” S-Adenosyl-L-Methionine (SAM, Sigma, final concentration: 0.5 μM), tritiated 3H-SAM (Perkin Elmer, final concentration: 0.5 μM) and H4(1-24) peptide substrate (final concentration: 0.06 μM). The resulting mixture (5 μL final volume) was shortly centrifuged (2 min., 1500 rpm) and incubated at 22° C. during 60 min. Thereupon the reaction was stopped by adding 3 μL of Streptavidin PS SPA imaging beads (Perkin Elmer, final concentration of 0.375 μg/μL) and “cold” SAM (AK Scientific, 250 μM final concentration) for non-specific binding reduction. Plates containing the stopped reaction were sealed with transparent adhesive foil (Perkin Elmer), centrifuged (2 min., 1500 rpm), and further incubated either 1 h at 22° C. or overnight at 4° C. in order to allow the SPA signals to develop. Subsequently, the amount of product was evaluated by measuring the energy transfer from the β-particles emitted by the 3H-labeled substrate to the Europium scintillator co-polymerized in the polystyrene matrix of the PS imaging beads, using the standard settings for this purpose of a Viewlux (Perkin-Elmer) CCD plate imaging device (emission filter 613/55 (IFP).
The resulting scintillation counts were taken as indicator for the amount of methylated peptide per well. The data were normalised using two sets of control wells (typically 16 each) for high—(=enzyme reaction with DMSO instead of test compound=0%=minimum inhibition) and low—(=all assay components without enzyme=100%=maximum inhibition) PRMT5 activity. IC50 values were calculated by fitting the normalized inhibition data to a 4-parameter logistic equation using the “Screener” analysis software from Genedata.

T1 sequence (O14744 whole entry, species assumed): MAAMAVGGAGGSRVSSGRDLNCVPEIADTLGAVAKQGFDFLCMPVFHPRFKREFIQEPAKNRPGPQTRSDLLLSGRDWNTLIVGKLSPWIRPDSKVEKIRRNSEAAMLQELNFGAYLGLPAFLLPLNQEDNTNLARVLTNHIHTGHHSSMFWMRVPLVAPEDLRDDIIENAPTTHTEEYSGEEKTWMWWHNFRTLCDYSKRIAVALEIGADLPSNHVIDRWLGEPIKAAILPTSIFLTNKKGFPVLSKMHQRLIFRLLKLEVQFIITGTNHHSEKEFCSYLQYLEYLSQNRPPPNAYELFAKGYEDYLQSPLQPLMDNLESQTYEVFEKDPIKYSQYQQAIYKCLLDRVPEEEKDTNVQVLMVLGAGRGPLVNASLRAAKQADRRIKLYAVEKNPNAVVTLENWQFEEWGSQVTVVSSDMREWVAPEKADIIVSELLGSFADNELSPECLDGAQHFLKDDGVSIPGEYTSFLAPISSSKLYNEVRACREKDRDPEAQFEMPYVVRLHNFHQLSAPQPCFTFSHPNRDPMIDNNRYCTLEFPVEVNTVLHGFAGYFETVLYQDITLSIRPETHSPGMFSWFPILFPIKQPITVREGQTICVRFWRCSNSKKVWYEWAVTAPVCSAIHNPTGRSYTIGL
T1 sequence (Q9BQA1 whole entry partner, species assumed): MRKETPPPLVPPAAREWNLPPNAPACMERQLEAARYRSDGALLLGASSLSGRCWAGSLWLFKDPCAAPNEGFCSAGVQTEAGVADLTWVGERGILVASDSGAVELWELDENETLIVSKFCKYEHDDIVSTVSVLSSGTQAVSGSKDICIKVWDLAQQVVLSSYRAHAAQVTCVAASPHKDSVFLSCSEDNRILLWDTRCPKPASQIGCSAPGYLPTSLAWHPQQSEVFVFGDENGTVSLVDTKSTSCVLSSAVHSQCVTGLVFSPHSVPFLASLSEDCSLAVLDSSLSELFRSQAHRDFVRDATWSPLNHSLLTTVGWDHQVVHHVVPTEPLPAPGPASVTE

CC(C)(C)c1cc(NC(=O)c2csc(NCC3CCCO3)n2)no1 (racemic) [Example 49, (rac)-N-(5-tert-Butyl-1,2-oxazol-3-yl)-2-{[-tetrahydrofuran-2-ylmethyl]amino}-1,3-thiazole-4-carboxamide]
IC50: 5680 nM

Cc1cccc(Nc2nc(C(=O)Nc3cc(C(C)(C)C)on3)cs2)c1 [Example 43, N-(5-tert-Butyl-1,2-oxazol-3-yl)-2-[(3-methylphenyl)amino]-1,3-thiazole-4-carboxamide]
IC50: 512 nM

CC(C)(C)c1cc(NC(=O)c2csc(NC3CC3)n2)no1 [Example 32, N-(5-tert-Butyl-1,2-oxazol-3-yl)-2-(cyclopropylamino)-1,3-thiazole-4-carboxamide]
IC50: 14700 nM

CC(C)(C)c1cc(NC(=O)c2csc(Nc3ccc(Cl)c(F)c3)n2)no1 [Example 39, N-(5-tert-Butyl-1,2-oxazol-3-yl)-2-[(4-chloro-3-fluorophenyl)amino]-1,3-thiazole-4-carboxamide]
IC50: 183 nM

CC(C)(C)c1cc(NC(=O)c2csc(Nc3cccc(Cl)c3)n2)no1 [Example 48, N-(5-tert-Butyl-1,2-oxazol-3-yl)-2-[(3-chlorophenyl)amino]-1,3-thiazole-4-carboxamide]
IC50: 2990 nM

CC(C)(C)c1cc(NC(=O)c2csc(Nc3ccccc3C(=O)Nc3cc4ccccc4cn3)n2)no1 [Example 47, N-(5-tert-Butyl-1,2-oxazol-3-yl)-2-{[2-(isoquinolin-3-ylcarbamoyl)phenyl]amino}-1,3-thiazole-4-carboxamide]
IC50: 1300 nM

CC(C)(C)c1cc(NC(=O)c2csc(Nc3ccc4c(c3)CCC4)n2)no1 [Example 38, N-(5-tert-Butyl-1,2-oxazol-3-yl)-2-(2,3-dihydro-1H-inden-5-ylamino)-1,3-thiazole-4-carboxamide]
IC50: 160 nM

CC(C)(C)c1cc(NC(=O)c2csc(Nc3ccccc3)n2)n[nH]1 [Example 16, N-(5-tert-Butyl-1H-pyrazol-3-yl)-2-(phenylamino)-1,3-thiazole-4-carboxamide]
IC50: 438 nM

CC(C)(C)c1cc(NC(=O)c2csc(Nc3ccccc3F)n2)no1 [Example 25, N-(5-tert-Butyl-1,2-oxazol-3-yl)-2-[(2-fluorophenyl)amino]-1,3-thiazole-4-carboxamide]
IC50: 2490 nM

CC(C)(C)c1cc(NC(=O)c2csc(NCc3ccco3)n2)no1 [Example 44, N-(5-tert-Butyl-1,2-oxazol-3-yl)-2-[(furan-2-ylmethyl)amino]-1,3-thiazole-4-carboxamide]
IC50: 606 nM

Cc1ccc(Nc2nc(C(=O)Nc3cc(C(C)(C)C)on3)cs2)c(F)c1 [Example 41, N-(5-tert-Butyl-1,2-oxazol-3-yl)-2-[(2-fluoro-4-methylphenyl)amino]-1,3-thiazole-4-carboxamide]
IC50: 426 nM

Cc1c(NC(=O)c2csc(Nc3ccc(Cl)cc3)n2)noc1C(C)(C)C [Example 29, N-(5-tert-Butyl-4-methyl-1,2-oxazol-3-yl)-2-[(4-chlorophenyl)amino]-1,3-thiazole-4-carboxamide]
IC50: 9680 nM

CC(C)(C)c1cc(NC(=O)c2csc(Nc3ccc(F)nc3)n2)no1 [Example 53, N-(5-tert-Butyl-1,2-oxazol-3-yl)-2-[(6-fluoropyridin-3-yl)amino]-1,3-thiazole-4-carboxamide]
IC50: 15200 nM

O=C(c1csc(Nc2ccc(Cl)cc2)n1)N1CCC(N2CCc3ccccc3C2)CC1 [Example 27, {2-[(4-Chlorophenyl)amino]-1,3-thiazol-4-yl}{4-[3,4-dihydroisoquinolin-2(1H)-yl]piperidin-1-yl}methanone]
IC50: 7610 nM

N#Cc1c[nH]nc1NC(=O)c1csc(Nc2ccccc2)n1 [Example 30, N-(4-Cyano-1H-pyrazol-3-yl)-2-(phenylamino)-1,3-thiazole-4-carboxamide]
IC50: 12000 nM

O=C(Nc1nccs1)c1csc(Nc2ccc(Cl)cc2)n1 [Example 11, 2-[(4-Chlorophenyl)amino]-N-(1,3-thiazol-2-yl)-1,3-thiazole-4-carboxamide]
IC50: 280 nM

CC(C)(C)c1cc(NC(=O)c2csc(Nc3cccc(F)c3F)n2)no1 [Example 52, N-(5-tert-Butyl-1,2-oxazol-3-yl)-2-[(2,3-difluorophenyl)amino]-1,3-thiazole-4-carboxamide]
IC50: 12300 nM

CC(C)(C)c1cc(NC(=O)c2csc(Nc3ccc(C#N)cc3)n2)no1 [Example 24, N-(5-tert-Butyl-1,2-oxazol-3-yl)-2-[(4-cyanophenyl)amino]-1,3-thiazole-4-carboxamide]
IC50: 2540 nM

Cc1ccc(Nc2nc(C(=O)Nc3cc(C(C)(C)C)on3)cs2)nc1 [Example 34, N-(5-tert-Butyl-1,2-oxazol-3-yl)-2-[(5-methylpyridin-2-yl)amino]-1,3-thiazole-4-carboxamide]
IC50: 41.8 nM

CC(C)(C)c1cc(NC(=O)c2csc(Nc3ccc(Cl)cn3)n2)no1 [Example 35, N-(5-tert-Butyl-1,2-oxazol-3-yl)-2-[(5-chloropyridin-2-yl)amino]-1,3-thiazole-4-carboxamide]
IC50: 49.6 nM

CC(C)(C)c1cc(NC(=O)c2csc(NCc3cccc(F)c3)n2)no1 [Example 42, N-(5-tert-Butyl-1,2-oxazol-3-yl)-2-[(3-fluorobenzyl)amino]-1,3-thiazole-4-carboxamide]
IC50: 508 nM

CC(C)(C)c1cc(NC(=O)c2csc(Nc3ccc4ccoc4c3)n2)no1 [Example 40, 2-(1-Benzofuran-6-ylamino)-N-(5-tert-butyl-1,2-oxazol-3-yl)-1,3-thiazole-4-carboxamide]
IC50: 350 nM

CC(C)(C)c1cc(NC(=O)c2csc(Nc3ccc(F)c(F)c3)n2)no1 [Example 45, N-(5-tert-Butyl-1,2-oxazol-3-yl)-2-[(3,4-difluorophenyl)amino]-1,3-thiazole-4-carboxamide]
IC50: 815 nM

CC(C)(C)c1cc(NC(=O)c2csc(Nc3ccc(F)cn3)n2)no1 [Example 6, N-(5-tert-Butyl-1,2-oxazol-3-yl)-2-[(5-fluoropyridin-2-yl)amino]-1,3-thiazole-4-carboxamide]
IC50: 118 nM

COc1ccc2[nH]c(NC(=O)c3csc(Nc4ccc(Cl)cc4)n3)nc2c1 [Example 9, 2-[(4-Chlorophenyl)amino]-N-(5-methoxy-1H-benzimidazol-2-yl)-1,3-thiazole-4-carboxamide]
IC50: 239 nM

O=C(NCCCN1CCc2ccccc2C1)c1csc(Nc2ccc(Cl)cc2)n1 [Example 26, 2-[(4-Chlorophenyl)amino]-N-[3-(3,4-dihydroisoquinolin-2(1H)-yl)propyl]-1,3-thiazole-4-carboxamide]
IC50: 7850 nM

O=C(Nc1cnn(C2COC2)c1)c1csc(Nc2ccc(Cl)cc2)n1 [Example 31, 2-[(4-Chlorophenyl)amino]-N-[1-(oxetan-3-yl)-1H-pyrazol-4-yl]-1,3-thiazole-4-carboxamide]
IC50: 15100 nM

C#Cc1cccc(Nc2nc(C(=O)Nc3cc(C(C)(C)C)on3)cs2)c1 [Example 51, N-(5-tert-Butyl-1,2-oxazol-3-yl)-2-[(3-ethynylphenyl)amino]-1,3-thiazole-4-carboxamide]
IC50: 10500 nM

CC(C)(C)c1cc(NC(=O)c2csc(NCCc3ccccc3)n2)no1 [Example 37, N-(5-tert-Butyl-1,2-oxazol-3-yl)-2-[(2-phenylethyl)amino]-1,3-thiazole-4-carboxamide]
IC50: 119 nM
